# Several values for one entry are separate records, joined by “and”; a condition that tells them apart may be missing. Identical values can stand only once.
# Key:
# Format in all cases: cell-based
# FKBP12 and mTOR = target: T1, FKBP12 and mTOR (Homo sapiens, UniProt P42345+P62942); assay: Fluoppi analysis: induction of FKBP12-mTOR complex formation in transfected HeLa cells; conditions: for Foci intensity: raw data, one replicate per line
# T1 construct: host or cells: HeLa cells
# Protocol: Fluoppi harbours a tetrameric fluorescent protein hAG tag and an oligomeric assembly helper Ash tag to create detectable fluorescent foci in cells when there are interactions between two proteins fused to each tag[32].
# HeLa cells were maintained in DMEM (Fujifilm Wako, Osaka, Japan) supplemented with 10% FBS (Thermo Fisher Scientific, MA, USA) and 1% of Penicillin-Streptomycin (Thermo Fisher Scientific) in a humidified incubator with 5% CO2 at 37 °C. Harvested cells were plated at 1 × 10^6 cells/well in 6-well plate and incubated for 6 h. Then each 1.25 µg of phAG-mTOR and pAsh-FKBP12 (Medical and Biological Laboratories Co., Ltd., Aichi, Japan) was co-transfected with Lipofectamine 2000 reagent (Thermo Fisher Scientific) overnight. Next day, transfected cells were harvested and seeded in 384-well optical-bottom microplate (PerkinElmer, MA, USA) at a density of 3000 cells/well. After the 24 h incubation at 37 °C, cells were treated with different concentrations of compounds for 1 h. Cells were then fixed with 4% paraformaldehyde and stained with 1 µg/ml of Hoechst33342 (Thermo Fisher Scientific). Cell images of 9 visual fields/well were acquired with ×20 objective lens in Opera Phenix High-Content Screening System (PerkinElmer) and analysed by Harmony4.9 software (PerkinElmer). Because protein-protein interactions are quantified by measuring the aggregation of fluorescent elements in foci, fluorescent intensity in foci was normalised by total fluorescent intensity in each cell. EC50 values were calculated using TIBCO Spotfire 10.3 software (PerkinElmer).
# T lymphoma Jurkat cells = assay: Cytotoxicity assay (CellTiter-Glo, 72 h), Jurkat; conditions: raw data (replicates)
# Protocol: (§1) Jurkat cells were cultured in RPMI1640 medium supplemented with 10% foetal bovine serum, penicillin (50 U/ml), streptomycin (50 μg/ml), and Glutamax. SKOV-3 cells were cultured in DMEM medium supplemented with 10% fetal bovine serum, penicillin (50 U/ml), and streptomycin (50 μg/ml). MESO-1 cells were cultured in RPMI1640 medium supplemented with 10% fetal bovine serum, penicillin (50 U/ml), and streptomycin (50 μg/ml). All cell lines were seeded in a 384-well plate at a density of 1000 cells/well in 20 μl of media and incubated at 37 °C in a humidified incubator with 5% CO2. After 4 h, 2-fold dilution samples resolved in DMSO were added to the cell culture at the concentration of 0.5% (0.1 μl) and incubated for 72 h. Cell viabilities were measured using a CellTiter-Glo luminescent cell viability assay and EnVision multilabel plate reader.
# [1] = test system: human ovarian adenocarcinoma SKOV-3 cells; assay: Cytotoxicity assay (CellTiter-Glo, 72 h), SKOV-3; conditions: raw replicate data
# Protocol: as §1
# [2] = test system: malignant pleural mesothelioma MESO-1 cells; assay: Cytotoxicity assay (CellTiter-Glo, 72 h), MESO-1; conditions: raw replicate data
# Protocol: as §1
# [3] = test system: Jurkat, SKOV-3 and MESO-1 cells; assay: Cytotoxicity assay, statements for all tested cell lines together; conditions: against the tested cell lines (Jurkat, SKOV-3, MESO-1)
# Protocol: as §1
# T1 sequence (P42345 2025-2114 limits assumed): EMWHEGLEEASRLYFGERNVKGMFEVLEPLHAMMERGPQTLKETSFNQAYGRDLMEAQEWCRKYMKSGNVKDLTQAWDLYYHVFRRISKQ
# T1 sequence (P62942 whole entry): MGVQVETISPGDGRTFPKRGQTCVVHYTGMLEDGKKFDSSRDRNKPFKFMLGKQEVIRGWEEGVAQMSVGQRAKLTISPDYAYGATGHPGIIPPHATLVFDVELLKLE
smiles,measurement,setting,value
COC1CC2CCC(C)C(O)(O2)C(=O)C(=O)N2CCCCC2C(=O)OC(C(C)CC2CCC(O)C(OC)C2)CC(O)CC(=O)C(C)CC(C)C=CC=CC=C1C (stereo not shown) [Compound 11],"PPI-inducing (binding enhancing) activity between FKBP12 and mTOR compared with rapamycin (1), in words",FKBP12 and mTOR; Fluoppi,completely lost the ability to induce the formation of FKBP12-mTOR complex
same,Foci intensity,FKBP12 and mTOR; conc 9.53674e-5 uM,0.02286 and 0.01106 and 0.01492
same,Foci intensity,FKBP12 and mTOR; conc 0.000190735 uM,0.009983 and 0.01574 and 0.02887
same,Foci intensity,FKBP12 and mTOR; conc 0.00038147 uM,0.01899 and 0.01621 and 0.01221
same,Foci intensity,FKBP12 and mTOR; conc 0.000762939 uM,0.002009 and 0.003868 and 0.01862
same,Foci intensity,FKBP12 and mTOR; conc 0.00152588 uM,0.02126 and 0.01678 and 0.003092
same,Foci intensity,FKBP12 and mTOR; conc 0.00305176 uM,0.0138 and 0.01691 and 0.01576
same,Foci intensity,FKBP12 and mTOR; conc 0.00610352 uM,0.03172 and 0.01801 and 0.0222
same,Foci intensity,FKBP12 and mTOR; conc 0.012207 uM,0.01093 and 0.01362 and 0.01381
same,Foci intensity,FKBP12 and mTOR; conc 0.0244141 uM,0.01964 and 0.01491 and 0.01835
same,Foci intensity,FKBP12 and mTOR; conc 0.0488281 uM,0.004003 and 0.01339 and 0.01507
same,Foci intensity,FKBP12 and mTOR; conc 0.0976562 uM,0.01375 and 0.009337 and 0.02775
same,Foci intensity,FKBP12 and mTOR; conc 0.195312 uM,0.0177 and 0.02519 and 0.008414
same,Foci intensity,FKBP12 and mTOR; conc 0.390625 uM,0.01709 and 0.006803 and 0.01525
same,Foci intensity,FKBP12 and mTOR; conc 0.78125 uM,0.01284 and 0.02644 and 0.03084
same,Foci intensity,FKBP12 and mTOR; conc 1.5625 uM,0.02173 and 0.02485 and 0.03636
same,Foci intensity,FKBP12 and mTOR; conc 3.125 uM,0.02309 and 0.03313 and 0.02928
same,Foci intensity,FKBP12 and mTOR; conc 6.25 uM,0.01525 and 0.02728 and 0.02945
same,Foci intensity,FKBP12 and mTOR; conc 12.5 uM,0.02884 and 0.0389 and 0.01245
same,Foci intensity,FKBP12 and mTOR; conc 25 uM,0.03878 and 0.02312 and 0.004037
same,Foci intensity,FKBP12 and mTOR; conc 50 uM,0.02187 and 0.0201 and 0.02169
same,Jurkat viability (%),T lymphoma Jurkat cells; conc 9.53674e-5 uM,99.6% and 105.7% and 104.8%
same,Jurkat viability (%),T lymphoma Jurkat cells; conc 0.000190735 uM,102.5% and 104.1% and 102.4%
same,Jurkat viability (%),T lymphoma Jurkat cells; conc 0.00038147 uM,103.5% and 109.4% and 98.8%
same,Jurkat viability (%),T lymphoma Jurkat cells; conc 0.000762939 uM,99.9% and 101.1% and 97.3%
same,Jurkat viability (%),T lymphoma Jurkat cells; conc 0.00152588 uM,100.9% and 100.4% and 103.9%
same,Jurkat viability (%),T lymphoma Jurkat cells; conc 0.00305176 uM,102.0% and 103.4% and 101.1%
same,Jurkat viability (%),T lymphoma Jurkat cells; conc 0.00610352 uM,100.0% and 104.2% and 103.2%
same,Jurkat viability (%),T lymphoma Jurkat cells; conc 0.012207 uM,106.8% and 106.3% and 106.1%
same,Jurkat viability (%),T lymphoma Jurkat cells; conc 0.0244141 uM,104.8% and 107.2% and 106.6%
same,Jurkat viability (%),T lymphoma Jurkat cells; conc 0.0488281 uM,97.2% and 96.3% and 106.5%
same,Jurkat viability (%),T lymphoma Jurkat cells; conc 0.0976562 uM,106.1% and 104.1% and 111.0%
same,Jurkat viability (%),T lymphoma Jurkat cells; conc 0.195312 uM,100.5% and 100.4% and 103.3%
same,Jurkat viability (%),T lymphoma Jurkat cells; conc 0.390625 uM,100.9% and 100.4% and 105.6%
same,Jurkat viability (%),T lymphoma Jurkat cells; conc 0.78125 uM,94.7% and 91.5% and 97.0%
same,Jurkat viability (%),T lymphoma Jurkat cells; conc 1.5625 uM,93.8% and 86.6% and 86.2%
same,Jurkat viability (%),T lymphoma Jurkat cells; conc 3.125 uM,76.9% and 80.2% and 77.8%
same,Jurkat viability (%),T lymphoma Jurkat cells; conc 6.25 uM,68.8% and 66.4% and 70.4%
same,Jurkat viability (%),T lymphoma Jurkat cells; conc 12.5 uM,58.6% and 56.1% and 57.5%
same,Jurkat viability (%),T lymphoma Jurkat cells; conc 25 uM,45.9% and 41.4% and 49.3%
same,Jurkat viability (%),T lymphoma Jurkat cells; conc 50 uM,12.3% and 11.6% and 15.7%
same,SKOV3 viability (%),[1]; conc 9.53674e-5 uM,103.0% and 111.8% and 102.7%
same,SKOV3 viability (%),[1]; conc 0.000190735 uM,100.4% and 96.2% and 95.8%
same,SKOV3 viability (%),[1]; conc 0.00038147 uM,103.1% and 104.5% and 105.0%
same,SKOV3 viability (%),[1]; conc 0.000762939 uM,97.9% and 100.1% and 100.0%
same,SKOV3 viability (%),[1]; conc 0.00152588 uM,106.4% and 105.2% and 101.9%
same,SKOV3 viability (%),[1]; conc 0.00305176 uM,98.6% and 97.0% and 99.4%
same,SKOV3 viability (%),[1]; conc 0.00610352 uM,109.3% and 103.3% and 106.5%
same,SKOV3 viability (%),[1]; conc 0.012207 uM,99.6% and 97.7% and 101.2%
same,SKOV3 viability (%),[1]; conc 0.0244141 uM,103.3% and 106.1% and 104.6%
same,SKOV3 viability (%),[1]; conc 0.0488281 uM,98.5% and 100.3% and 98.3%
same,SKOV3 viability (%),[1]; conc 0.0976562 uM,105.4% and 104.9% and 104.3%
same,SKOV3 viability (%),[1]; conc 0.195312 uM,95.0% and 97.7% and 100.1%
same,SKOV3 viability (%),[1]; conc 0.390625 uM,104.0% and 107.6% and 105.3%
same,SKOV3 viability (%),[1]; conc 0.78125 uM,100.0% and 99.8% and 98.6%
same,SKOV3 viability (%),[1]; conc 1.5625 uM,98.3% and 102.6% and 98.7%
same,SKOV3 viability (%),[1]; conc 3.125 uM,98.0% and 99.6% and 88.9%
same,SKOV3 viability (%),[1]; conc 6.25 uM,95.1% and 93.6% and 91.3%
same,SKOV3 viability (%),[1]; conc 12.5 uM,92.5% and 90.6% and 91.1%
same,SKOV3 viability (%),[1]; conc 25 uM,91.0% and 92.9% and 94.1%
same,SKOV3 viability (%),[1]; conc 50 uM,83.8% and 79.2% and 82.0%
same,MESO1 viability (%),[2]; conc 9.53674e-5 uM,103.9% and 103.5% and 98.5%
same,MESO1 viability (%),[2]; conc 0.000190735 uM,96.6% and 99.4% and 97.9%
same,MESO1 viability (%),[2]; conc 0.00038147 uM,98.3% and 99.6% and 101.3%
same,MESO1 viability (%),[2]; conc 0.000762939 uM,105.2% and 96.5% and 100.7%
same,MESO1 viability (%),[2]; conc 0.00152588 uM,101.4% and 100.3% and 96.4%
same,MESO1 viability (%),[2]; conc 0.00305176 uM,100.9% and 90.0% and 104.4%
same,MESO1 viability (%),[2]; conc 0.00610352 uM,103.9% and 99.7% and 97.3%
same,MESO1 viability (%),[2]; conc 0.012207 uM,100.4% and 97.8% and 98.7%
same,MESO1 viability (%),[2]; conc 0.0244141 uM,97.0% and 101.2% and 106.3%
same,MESO1 viability (%),[2]; conc 0.0488281 uM,98.5% and 98.3% and 96.0%
same,MESO1 viability (%),[2]; conc 0.0976562 uM,105.6% and 104.1% and 98.8%
same,MESO1 viability (%),[2]; conc 0.195312 uM,98.6% and 98.7% and 91.4%
same,MESO1 viability (%),[2]; conc 0.390625 uM,103.9% and 97.5% and 98.1%
same,MESO1 viability (%),[2]; conc 0.78125 uM,94.8% and 90.3% and 84.8%
same,MESO1 viability (%),[2]; conc 1.5625 uM,93.0% and 93.7% and 91.6%
same,MESO1 viability (%),[2]; conc 3.125 uM,84.8% and 80.8% and 88.7%
same,MESO1 viability (%),[2]; conc 6.25 uM,89.0% and 88.1% and 84.7%
same,MESO1 viability (%),[2]; conc 12.5 uM,82.3% and 77.8% and 85.2%
same,MESO1 viability (%),[2]; conc 25 uM,76.7% and 80.1% and 74.6%
same,MESO1 viability (%),[2]; conc 50 uM,57.9% and 55.6% and 52.8%
same,Concentration at which cytotoxic activities were shown,[3],over 10 µM

# From publication PMC7419507, “In vitro Cas9-assisted editing of modular polyketide synthase genes to produce desired natural product derivatives” (Nature Communications, 2020)
